According to US8748453B2, “Substituted heterocyclic compounds as kinases inhibitors and methods of use thereof” (Medolution Limited, priority 2009, dated 2014):

Tests used:
EGFR = molecular target: T1, EGFR (Homo sapiens, UniProt P00533); assay: Radiometric kinase assay, EGFR; assay type: biochemical; conditions: read-out: potency (IC50) over EGFR assay
T1 construct: Recombinant catalytic domain, amino acids 668-1210, GST tagged, purified from insect cells; GST; host or cells: insect cells
Experimental: (§1) Base Reaction buffer: 20 mM Hepes (pH 7.5), 10 mM MgCl2, 1 mM EGTA, 0.02% Brij35, 0.02 mg/ml BSA, 0.1 mM Na3VO4, 2 mM DTT, 1% DMSO. *Required cofactors are added individually to each kinase reaction
(§2) Prepare indicated substrate in freshly prepared Base Reaction Buffer • Deliver any required cofactors to the substrate solution above • Deliver indicated kinase into the substrate solution and gently mix • Deliver compounds in DMSO into the kinase reaction mixture • Deliver ^33P-ATP (specific activity 0.01 μCi/μl final) into the reaction mixture to initiate the reaction.
Activated in vitro via autophosphorylation. Final concentration in assay=4 nM. Substrate: pEY. Peptide sequence: Poly Glu-Tyr, 4:1 ratio. Final concentration in assay=0.2 mg·mL. 2 mM MnCl2 is added as a cofactor to the reaction mixture
(§3) Compounds in accordance with the practice of the present invention were tested in kinase assays employing high throughput radiometric techniques and nanoliter volume technology (Reaction Biology Corporation, Malvern Pa.).

ErbB2/HER2 = molecular target: T2, ErbB2/HER2 (Homo sapiens, UniProt P04626); assay: Radiometric kinase assay, ErbB2/HER2; assay type: biochemical; conditions: read-out: potency (IC50) over Her-2 assay
T2 construct: Recombinant catalytic domain, amino acids 679-1255, GST tagged, purified from insect cells; GST; host or cells: insect cells
Experimental: as §1, §2
ErbB2/HER2—Genbank Accession # X03363. […] Final concentration in assay=50 nM. Substrate: pEY. Peptide sequence: Poly Glu-Tyr, 4:1 ratio. Final concentration in assay=0.2 mg·mL. 2 mM MnCl2 is added as a cofactor to the reaction mixture
as §3

[1] = Pharmacokinetics after IV administration to Sprague-Dawley rats; conditions: rat, in vivo; for clearance: read-out: mean Clearance (CL) (converted); for half-life: read-out: mean elimination half-life (T1/2) (converted)
NCI-H1975 = assay: Human tumor cell-line growth assay, NCI-H1975; assay type: cell-based; conditions: NCI-H1975 (EGFR mutant L858R/T790M), 10-dose, 3-fold dilution starting at 10 μM, read-out: IC50 growth inhibition NCI-H1975
Experimental: (§4) Invention compounds were tested in human tumor cell-line growth assays.

SKBR3 = assay: Human tumor cell-line growth assay, SKBR3; assay type: cell-based; conditions: SK-BR-3, SKBR3 (overexpressing EGFR and ErbB2), 10-dose, 3-fold dilution starting at 10 μM, read-out: IC50 growth inhibition SKBR3
Experimental: as §4

A549 = assay: Human tumor cell-line growth assay, A549; assay type: cell-based; conditions: 10-dose, 3-fold dilution starting at 10 μM, read-out: IC50 growth inhibition A549
Experimental: as §4

BT-474 = assay: Human tumor cell-line growth assay, BT-474; assay type: cell-based; conditions: BT-474 (overexpressing ErbB2), 10-dose, 3-fold dilution starting at 10 μM, read-out: IC50 growth inhibition BT-474
Experimental: as §4

NCI-H1650 = assay: Human tumor cell-line growth assay, NCI-H1650; assay type: cell-based; conditions: NCI-H1650 (EGFR mutant E746-A750), 10-dose, 3-fold dilution starting at 10 μM, read-out: IC50 growth inhibition NCI-H1650
Experimental: as §4

A431 = assay: Human tumor cell-line growth assay, A431; assay type: cell-based; conditions: A-431, A431 (overexpressing EGFR), 10-dose, 3-fold dilution starting at 10 μM, read-out: IC50 growth inhibition A431
Experimental: as §4

T1 sequence (P00533 668-1210): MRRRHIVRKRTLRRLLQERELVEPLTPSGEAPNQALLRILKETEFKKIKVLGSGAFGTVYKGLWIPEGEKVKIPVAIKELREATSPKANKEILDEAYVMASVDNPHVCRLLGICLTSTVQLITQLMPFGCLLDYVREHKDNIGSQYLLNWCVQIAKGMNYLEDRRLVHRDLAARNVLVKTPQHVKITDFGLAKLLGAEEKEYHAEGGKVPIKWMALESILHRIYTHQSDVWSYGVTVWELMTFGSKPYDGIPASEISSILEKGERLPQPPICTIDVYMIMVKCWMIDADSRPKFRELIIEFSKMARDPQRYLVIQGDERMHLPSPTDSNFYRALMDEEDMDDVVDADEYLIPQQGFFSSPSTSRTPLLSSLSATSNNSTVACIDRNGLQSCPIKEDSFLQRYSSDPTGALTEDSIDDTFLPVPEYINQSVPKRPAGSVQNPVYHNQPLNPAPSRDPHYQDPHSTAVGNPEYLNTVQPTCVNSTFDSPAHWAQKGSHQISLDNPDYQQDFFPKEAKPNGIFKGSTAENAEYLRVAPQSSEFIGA
T2 sequence (P04626 679-1255): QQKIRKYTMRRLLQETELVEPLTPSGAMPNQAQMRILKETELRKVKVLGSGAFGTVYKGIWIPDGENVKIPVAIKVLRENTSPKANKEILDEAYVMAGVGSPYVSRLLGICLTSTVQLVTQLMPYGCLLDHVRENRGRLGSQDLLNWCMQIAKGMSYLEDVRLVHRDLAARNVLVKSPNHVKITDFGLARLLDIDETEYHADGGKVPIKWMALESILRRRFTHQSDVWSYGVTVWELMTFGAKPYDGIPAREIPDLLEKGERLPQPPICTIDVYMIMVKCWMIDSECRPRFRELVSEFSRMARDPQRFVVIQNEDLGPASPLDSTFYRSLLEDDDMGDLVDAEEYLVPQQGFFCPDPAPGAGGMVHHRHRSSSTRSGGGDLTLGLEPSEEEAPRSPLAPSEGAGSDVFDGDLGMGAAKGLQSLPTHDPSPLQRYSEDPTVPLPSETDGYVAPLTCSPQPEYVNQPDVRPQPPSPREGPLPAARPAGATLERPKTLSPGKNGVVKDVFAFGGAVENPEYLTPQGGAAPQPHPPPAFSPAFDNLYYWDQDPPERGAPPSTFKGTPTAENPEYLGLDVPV

Row | SMILES | IC50 (EGFR) [nM] | IC50 (ErbB2/HER2) [nM] | clearance [1] [mL/min/kg] | half-life [1] [h] | IC50 (NCI-H1975) [nM] | IC50 (SKBR3) [nM] | IC50 (A549) [nM] | IC50 (BT-474) [nM] | IC50 (NCI-H1650) [nM] | IC50 (A431) [nM]
1 | [2H]C([2H])([2H])N(C/C=C/C(=O)Nc1cc2c(Nc3cccc(C#C)c3)c(C#N)cnc2cc1OCC)C([2H])([2H])[2H] [Compound B, (E)-N-(3-cyano-7-ethoxy-4-(3-ethynylphenylamino)quinolin-6-yl)-4-(dimethyl-d6-amino)but-2-enamide] | < 1000 | < 1000 | 47.1 | 8.76 | – | – | – | – | – | –
2 | [2H]C([2H])([2H])N(C/C=C/C(=O)Nc1cc2c(Nc3ccc(OCc4ccccn4)c(Cl)c3)c(C#N)cnc2cc1OCC)C([2H])([2H])[2H] [Compound A, (E)-N-{4-[3-chloro-4-(2-pyridinylmethoxy)aniline]-3-cyano-7-ethoxy-6-quinolinyl}-4-(dimethyl-d6-amino)-2-butenamide] | – | – | – | 6.59 | – | – | – | – | – | –
3 | C#Cc1cccc(Nc2c(C#N)cnc3cc(OCC)c(NC(=O)/C=C/CN(C)C)cc23)c1 [Compound C, (E)-N-(3-cyano-7-ethoxy-4-(3-ethynylphenylamino)quinolin-6-yl)-4-(dimethylamino)but-2-enamide] | < 1000 | < 1000 | 59.7 | 5.37 | < 10000 | < 1000 | < 1000 | < 1000 | < 10000 | < 1000

Results, then the molecule that gave them:

Row | IC50 (EGFR) [nM] | IC50 (ErbB2/HER2) [nM] | clearance [1] [mL/min/kg] | half-life [1] [h] | IC50 (NCI-H1975) [nM] | IC50 (SKBR3) [nM] | IC50 (A549) [nM] | IC50 (BT-474) [nM] | IC50 (NCI-H1650) [nM] | IC50 (A431) [nM] | SMILES
4 | – | – | – | 5.28 | – | – | – | – | – | – | CCOc1cc2ncc(C#N)c(Nc3ccc(OCc4ccccn4)c(Cl)c3)c2cc1NC(=O)/C=C/CN(C)C [HKI272, reference compound]
5 | < 1000 | < 1000 | – | – | – | – | – | – | – | – | [2H]C([2H])([2H])N(C/C=C/C(=O)Nc1cc2c(Nc3ccc(OCc4ccccn4)c(Cl)c3)c(C#N)cnc2cc1OCCOC)C([2H])([2H])[2H] [Example 7]
